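In this assay, cells in 96-well plates receive the compound at five concentrations for 48 hours. Endpoints are linearly interpolated between the surrounding concentrations. Here, GI50 denotes the concentration required for 50% inhibition of growth. TGI marks complete inhibition of growth.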
Tests used:
Assay in all cases: growth of human tumour cells (NCI), 48 h
OVCAR-4 ovarian = test system: OVCAR-4 ovarian
LOX IMVI melanoma = test system: LOX IMVI melanoma
SNB-19 CNS = test system: SNB-19 CNS
SN12C renal = test system: SN12C renal
ACHN renal = test system: ACHN renal
SK-MEL-28 melanoma = test system: SK-MEL-28 melanoma
MCF7 breast = test system: MCF7 breast
IGROV1 ovarian = test system: IGROV1 ovarian
RPMI-8226 leukemia = test system: RPMI-8226 leukemia
PC-3 prostate = test system: PC-3 prostate
OVCAR-3 ovarian = test system: OVCAR-3 ovarian
HT29 colon = test system: HT29 colon
HCT-15 colon = test system: HCT-15 colon
BT-549 breast = test system: BT-549 breast
A549 NSCLC = test system: A549 NSCLC
NCI-H522 lung = test system: NCI-H522 lung
OVCAR-8 ovarian = test system: OVCAR-8 ovarian
U251 CNS = test system: U251 CNS
SK-OV-3 ovarian = test system: SK-OV-3 ovarian
UACC-257 melanoma = test system: UACC-257 melanoma
MDA-MB-231 breast = test system: MDA-MB-231 breast
HOP-92 NSCLC = test system: HOP-92 NSCLC
SR leukemia = test system: SR leukemia
OVCAR-5 ovarian = test system: OVCAR-5 ovarian
MOLT-4 leukemia = test system: MOLT-4 leukemia
SK-MEL-2 melanoma = test system: SK-MEL-2 melanoma
DU-145 prostate = test system: DU-145 prostate
EKVX NSCLC = test system: EKVX NSCLC
786-0 renal = test system: 786-0 renal
MDA-MB-435 = test system: MDA-MB-435
UACC-62 melanoma = test system: UACC-62 melanoma
KM12 colon = test system: KM12 colon
RXF 393 renal = test system: RXF 393 renal
SNB-75 CNS = test system: SNB-75 CNS
SF-268 CNS = test system: SF-268 CNS
SW-620 colon = test system: SW-620 colon
NCI/ADR-RES ovarian = test system: NCI/ADR-RES ovarian
NCI-H23 lung = test system: NCI-H23 lung
HCT-116 colon = test system: HCT-116 colon
NCI-H460 lung = test system: NCI-H460 lung
SF-539 CNS = test system: SF-539 CNS
T-47D breast = test system: T-47D breast
NCI-H226 lung = test system: NCI-H226 lung
HS 578T breast = test system: HS 578T breast
K-562 leukemia = test system: K-562 leukemia
CAKI-1 renal = test system: CAKI-1 renal
CCRF-CEM leukemia = test system: CCRF-CEM leukemia
SK-MEL-5 melanoma = test system: SK-MEL-5 melanoma
HOP-62 NSCLC = test system: HOP-62 NSCLC
A498 renal = test system: A498 renal
MALME-3M melanoma = test system: MALME-3M melanoma
SF-295 CNS = test system: SF-295 CNS
HCC-2998 colon = test system: HCC-2998 colon
UO-31 renal = test system: UO-31 renal
HL-60(TB) leukemia = test system: HL-60(TB) leukemia
M14 melanoma = test system: M14 melanoma
TK-10 renal = test system: TK-10 renal
COLO 205 colon = test system: COLO 205 colon

## COc1ccc(/C(=N\NC(N)=S)c2ccc(Cl)cc2)cc1OC
OVCAR-4 ovarian
  GI50: 7.01 µM
  TGI: 40.7 µM
LOX IMVI melanoma
  GI50: 4.41 µM
  TGI: 18.2 µM
SNB-19 CNS
  GI50: 5.22 µM
  TGI: 21.5 µM
SN12C renal
  GI50: 4.63 µM
  TGI: 18.5 µM
ACHN renal
  GI50: 5.89 µM
  TGI: 29.2 µM
SK-MEL-28 melanoma
  GI50: 6.95 µM
  TGI: 21.7 µM
MCF7 breast
  GI50: 3.12 µM
  TGI: 15.5 µM
IGROV1 ovarian
  GI50: 4.11 µM
  TGI: 20.4 µM
RPMI-8226 leukemia
  GI50: 3.4 µM
  TGI: 16.4 µM
PC-3 prostate
  GI50: 3.76 µM
  TGI: 20.1 µM
OVCAR-3 ovarian
  GI50: 3.47 µM
  TGI: 14.9 µM
HT29 colon
  GI50: 2.69 µM
  TGI: 9.48 µM
HCT-15 colon
  GI50: 2.06 µM
  TGI: 15.6 µM
BT-549 breast
  GI50: 2.4 µM
  TGI: 6.33 µM
A549 NSCLC
  GI50: 5.94 µM
  TGI: 32.3 µM
NCI-H522 lung
  GI50: 1.37 µM
  TGI: 4.62 µM
OVCAR-8 ovarian
  GI50: 4.41 µM
  TGI: 20.5 µM
U251 CNS
  GI50: 3.71 µM
  TGI: 15.4 µM
SK-OV-3 ovarian
  GI50: 3.38 µM
  TGI: 16.1 µM
UACC-257 melanoma
  GI50: 8.13 µM
  TGI: 26.2 µM
MDA-MB-231 breast
  GI50: 4.48 µM
  TGI: 18.2 µM
HOP-92 NSCLC
  GI50: 4.67 µM
  TGI: 17.4 µM
SR leukemia
  GI50: 2.43 µM
  TGI: > 39.7 µM
OVCAR-5 ovarian
  GI50: 5.44 µM
  TGI: 21.3 µM
MOLT-4 leukemia
  GI50: 4.91 µM
  TGI: 29.2 µM
SK-MEL-2 melanoma
  GI50: 1.67 µM
  TGI: 4.67 µM
DU-145 prostate
  GI50: 5.95 µM
  TGI: 22.5 µM
EKVX NSCLC
  GI50: 4.95 µM
  TGI: 28.3 µM
786-0 renal
  GI50: 7.54 µM
  TGI: 23.1 µM
MDA-MB-435
  GI50: 0.638 µM
  TGI: 2.84 µM
UACC-62 melanoma
  GI50: 3.7 µM
  TGI: 19.6 µM
KM12 colon
  GI50: 3.56 µM
  TGI: 19.4 µM
RXF 393 renal
  GI50: 1.94 µM
  TGI: 7.26 µM
SNB-75 CNS
  GI50: 1.69 µM
  TGI: 6.73 µM
SF-268 CNS
  GI50: 8.87 µM
  TGI: 30.3 µM
SW-620 colon
  GI50: 3.65 µM
  TGI: 17.5 µM
NCI/ADR-RES ovarian
  GI50: 2.34 µM
  TGI: 9.89 µM
NCI-H23 lung
  GI50: 4.7 µM
  TGI: 18.2 µM
HCT-116 colon
  GI50: 3.59 µM
  TGI: 15.6 µM
NCI-H460 lung
  GI50: 3.58 µM
  TGI: 13 µM
SF-539 CNS
  GI50: 2.63 µM
  TGI: 9.11 µM
T-47D breast
  GI50: 3.16 µM
  TGI: 25 µM
NCI-H226 lung
  GI50: 2.72 µM
  TGI: 17.6 µM
HS 578T breast
  GI50: 2.77 µM
  TGI: 13.8 µM
K-562 leukemia
  GI50: 1.04 µM
  TGI: > 41.1 µM
CAKI-1 renal
  GI50: 3.28 µM
  TGI: 17.1 µM
CCRF-CEM leukemia
  GI50: 2.63 µM
  TGI: 16.6 µM
SK-MEL-5 melanoma
  GI50: 4.14 µM
  TGI: 14 µM
HOP-62 NSCLC
  GI50: 4.38 µM
  TGI: 20.8 µM
A498 renal
  GI50: 5.93 µM
  TGI: 13.4 µM
MALME-3M melanoma
  GI50: 3.54 µM
  TGI: 19.2 µM
SF-295 CNS
  GI50: 3.56 µM
  TGI: 14.2 µM
HCC-2998 colon
  GI50: 4.36 µM
  TGI: 16.5 µM
UO-31 renal
  GI50: 3.34 µM
  TGI: 16.6 µM
HL-60(TB) leukemia
  GI50: 1.77 µM
  TGI: 8.05 µM
M14 melanoma
  GI50: 2.93 µM
  TGI: 15.2 µM
TK-10 renal
  GI50: 11.1 µM
  TGI: 31.6 µM
COLO 205 colon
  GI50: 3.37 µM
  TGI: 10.8 µM

From PubChem BioAssay (NCI)
